Data published in patent US20130225530A1 (priority 2010, published 2013).
Like-named read-outs stand apart in the source and are kept apart here.

Assays:
CDK9 = biological target: T1, CDK9 (Homo sapiens, UniProt P50750); assay: Duration of the inhibitory effect on CDK9 in CEM; assay type: cell-based; conditions: dose of 50 μM in CEM
T1 construct: endogenous in cells; host or cells: CEM

[1] = system: ventricular cardiac myocytes; assay: Tolerance of the compound by ventricular cardiac myocytes; assay type: cell-based, rat; conditions: even at higher doses
Text: To test Wogonin in hypertrophic conditions, ventricular cardiac myocytes from neonatal rats were isolated.

[2] = system: RNAPII C-terminal domain Ser2 phosphorylation; assay: Phenylephrine-induced phosphorylation of RNAPII in ventricular cardiac myocytes; assay type: cell-based, rat
Text: To test Wogonin in hypertrophic conditions, ventricular cardiac myocytes from neonatal rats were isolated. Hypertrophy was induced by stimulating the cells (cardiomyocytes) with phenylephrine.

CDK6 = CDK6 (Homo sapiens, UniProt Q00534); assay: Inhibition of the kinase CDK6; assay type: biochemical
Protocol: (§1) Contrary to this, the known compound Quercetin does inhibit the kinases CDK4 and CDK6 (applied at a dose of 50 µM).

CDK4 = CDK4 (Homo sapiens, UniProt P11802); assay: Inhibition of the kinase CDK4; assay type: biochemical
Protocol: as §1

CDK2 = CDK2 (Homo sapiens, UniProt P24941); assay: Inhibition of the cellular kinase CDK2; assay type: biochemical
Protocol: The amount of phosphorylated substrate was determined by Western Blot using phospho-specific antibodies.

[3] = system: normal proliferating T cells (d6 T cells)
Protocol: Apoptotic cell death was determined by DNA fragmentation after 48 hours.
Since proliferating cells are in general more susceptible to drug-induced apoptotic cell death, the T cells were activated through PHA stimulation and cultured for further 5 days under supplementation of IL-2 (so called d6 T cells).

leukemic CEM cells = assay: Killing of leukemic CEM T-cells (DNA fragmentation); assay type: cell-based

CDK6, sequence (Q00534 whole entry, species assumed): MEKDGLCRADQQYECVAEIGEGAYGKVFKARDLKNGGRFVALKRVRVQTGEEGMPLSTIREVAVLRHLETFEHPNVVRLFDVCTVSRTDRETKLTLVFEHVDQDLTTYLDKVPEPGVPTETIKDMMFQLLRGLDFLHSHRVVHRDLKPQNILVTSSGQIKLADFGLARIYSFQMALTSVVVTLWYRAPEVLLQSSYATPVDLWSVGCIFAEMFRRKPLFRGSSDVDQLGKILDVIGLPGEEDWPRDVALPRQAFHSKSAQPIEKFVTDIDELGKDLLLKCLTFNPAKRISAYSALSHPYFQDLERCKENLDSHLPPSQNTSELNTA
CDK4, sequence (P11802 whole entry, species assumed): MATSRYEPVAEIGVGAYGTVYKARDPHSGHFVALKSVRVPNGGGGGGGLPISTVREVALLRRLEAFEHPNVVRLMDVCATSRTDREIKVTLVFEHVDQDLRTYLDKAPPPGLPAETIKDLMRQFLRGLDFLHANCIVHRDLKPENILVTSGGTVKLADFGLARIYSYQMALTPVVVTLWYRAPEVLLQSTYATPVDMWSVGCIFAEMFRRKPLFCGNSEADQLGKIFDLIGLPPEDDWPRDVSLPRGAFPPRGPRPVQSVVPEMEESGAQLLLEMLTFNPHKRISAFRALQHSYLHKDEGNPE
T1 sequence (P50750 whole entry): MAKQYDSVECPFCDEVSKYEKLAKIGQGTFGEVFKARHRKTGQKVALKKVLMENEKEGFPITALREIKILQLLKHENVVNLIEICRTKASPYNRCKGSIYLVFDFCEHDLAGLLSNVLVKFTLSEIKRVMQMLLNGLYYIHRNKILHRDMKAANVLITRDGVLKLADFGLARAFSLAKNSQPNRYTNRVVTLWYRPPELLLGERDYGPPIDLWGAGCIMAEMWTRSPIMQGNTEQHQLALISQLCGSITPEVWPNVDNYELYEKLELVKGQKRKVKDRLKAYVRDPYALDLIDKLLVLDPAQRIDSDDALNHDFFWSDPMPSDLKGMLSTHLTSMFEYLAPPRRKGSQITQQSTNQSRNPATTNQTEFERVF
T1 sequence (O60563 whole entry partner): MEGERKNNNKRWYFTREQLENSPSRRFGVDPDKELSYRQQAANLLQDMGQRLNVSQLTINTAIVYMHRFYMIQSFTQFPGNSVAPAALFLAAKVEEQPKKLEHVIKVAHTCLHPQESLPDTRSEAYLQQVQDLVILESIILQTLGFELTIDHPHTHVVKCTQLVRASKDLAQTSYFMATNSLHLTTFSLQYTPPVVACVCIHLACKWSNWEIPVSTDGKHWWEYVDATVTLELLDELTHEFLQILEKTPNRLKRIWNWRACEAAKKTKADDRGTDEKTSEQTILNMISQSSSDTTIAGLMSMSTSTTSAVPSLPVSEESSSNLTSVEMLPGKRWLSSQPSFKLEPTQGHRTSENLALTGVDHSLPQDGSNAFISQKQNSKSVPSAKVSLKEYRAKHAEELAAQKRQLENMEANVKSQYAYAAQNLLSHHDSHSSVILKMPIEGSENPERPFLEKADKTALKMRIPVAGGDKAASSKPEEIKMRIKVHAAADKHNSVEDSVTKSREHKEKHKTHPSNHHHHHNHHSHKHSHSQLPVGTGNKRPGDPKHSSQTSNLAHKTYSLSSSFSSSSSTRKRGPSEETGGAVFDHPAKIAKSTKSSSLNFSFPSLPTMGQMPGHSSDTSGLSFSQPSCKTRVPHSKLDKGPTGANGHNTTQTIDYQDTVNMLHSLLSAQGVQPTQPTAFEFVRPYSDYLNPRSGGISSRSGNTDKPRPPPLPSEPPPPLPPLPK

COc1c(O)cc(O)c2c(=O)cc(-c3ccccc3)oc12 [Wogonin, 5,7-Dihydroxy-8-methoxy-flavone]
duration of inhibitory effect on CDK9 compared with Quercetin (in words) (CDK9): much longer inhibitory effect
tolerance by the cells (in words) [1]: well supported by the cells
inhibition of phenylephrine-induced phosphorylation of RNAPII (in words) ([2]; neonatal rat cardiomyocytes, 50 μM in a solution): almost completely inhibited
inhibition of CDK6 (in words) (CDK6; applied at a dose of 50 μM): do not inhibit
inhibition of CDK6 (in words) (CDK6; no concentration given): does not strongly inhibit
inhibition of CDK4 (in words) (CDK4; applied at a dose of 50 μM): do not inhibit
inhibition of CDK4 (in words) (CDK4; no concentration given): does not strongly inhibit
inhibition of CDK2 (in words) (CDK2): does not strongly inhibit
DNA-fragmentation ([3]; T-cells, 48 hours, dose of 10 μM): less than 5%
DNA-fragmentation compared with Quercetin (in words) ([3]; T-cells, 48 hours, doses of 10 μM, 50 μM and 100 μM): much less DNA-fragmentation
toxicity to normal T cells compared to other flavones tested (in words) ([3]; d6 T cells): particularly low toxicity
toxicity to normal proliferating T cells (in words) ([3]; up to concentrations of 100 μM, in comparison to leukemic CEM cells): no or very low toxicity

CN1CC[C@H](c2c(O)cc(O)c3c(=O)cc(-c4ccccc4Cl)oc23)[C@H](O)C1 [Flavopiridol, reference compound]
inhibition of phosphorylation of the RNAPII C-terminal domain at Ser2 (in words) ([2]; no concentration or cell type given): inhibits phosphorylation
concentration required to kill leukemic cells (leukemic CEM cells): ~500 nM

O=c1c(O)c(-c2ccc(O)c(O)c2)oc2cc(O)cc(O)c12 [Quercetin, reference compound]
inhibition of CDK6 (in words) (CDK6; applied at a dose of 50 μM): does inhibit
inhibition of CDK4 (in words) (CDK4; applied at a dose of 50 μM): does inhibit
DNA-fragmentation ([3]; human, 48 h, 10 μM): more than 15%
